Results: the supplement of paper PMC10307832

Experiments:
Assay in all cases: relative viability (nuclei count vs DMSO), 5 days (fraction); higher = more cells survive
MLN4924 + Luminespib = compound: NS(=O)(=O)OC[C@@H]1C[C@@H](n2ccc3c(N[C@H]4CCc5ccccc54)ncnc32)C[C@@H]1O [MLN4924] + CCNC(=O)c1noc(-c2cc(C(C)C)c(O)cc2O)c1-c1ccc(CN2CCOCC2)cc1 [Luminespib] (partner 0.01 µM)
How it was run: (§1)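 Cells from lung cancer lines were seeded into 1536-well plates and, one day later, dosed by pin tool. Treatments were either a single drug or a fixed dose of an anchor drug with five library-drug doses (not always all listed) in √10 steps. After 5 days, nuclei were stained in a one-step fixation (final 0.05% Triton X-100, 1% formaldehyde, 1 ug/ml Hoechst) and counted on 4× images, and relative viability is the treated-to-vehicle nuclei ratio, as the median of duplicate plates.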

Carboplatin + Bortezomib = compound: C1CC(C1)(C(=O)O)C(=O)O.[NH2-].[NH2-].[Pt+2] [Carboplatin] + CC(C)C[C@H](NC(=O)[C@H](Cc1ccccc1)NC(=O)c1cnccn1)B(O)O [Bortezomib] (partner 0.002 µM)
How it was run: as §1

GSK126 + Decitabine = compound: CC[C@H](C)N1C=C(C2=C(C=C(C=C21)C3=CN=C(C=C3)N4CCNCC4)C(=O)NCC5=C(C=C(NC5=O)C)C)C [GSK126] + Nc1ncn([C@H]2C[C@H](O)[C@@H](CO)O2)c(=O)n1 [Decitabine] (partner 2 µM)
How it was run: as §1

Carboplatin + Crizotinib = compound: C1CC(C1)(C(=O)O)C(=O)O.[NH2-].[NH2-].[Pt+2] [Carboplatin] + C[C@@H](Oc1cc(-c2cnn(C3CCNCC3)c2)cnc1N)c1c(Cl)ccc(F)c1Cl [Crizotinib] (partner 1 µM)
How it was run: as §1

| Cell Line | relative viability (MLN4924 + Luminespib; first compound 0.04 µM) | relative viability (MLN4924 + Luminespib; first compound 0.1265 µM) | relative viability (MLN4924 + Luminespib; first compound 0.4 µM) | relative viability (MLN4924 + Luminespib; first compound 1.265 µM) | relative viability (MLN4924 + Luminespib; first compound 4 µM) | relative viability (Carboplatin + Bortezomib; first compound 0.08 µM) | relative viability (Carboplatin + Bortezomib; first compound 0.253 µM) | relative viability (Carboplatin + Bortezomib; first compound 0.8 µM) | relative viability (Carboplatin + Bortezomib; first compound 2.53 µM) | relative viability (Carboplatin + Bortezomib; first compound 8 µM) | relative viability (GSK126 + Decitabine; first compound 0.08 µM) | relative viability (GSK126 + Decitabine; first compound 0.253 µM) | relative viability (GSK126 + Decitabine; first compound 0.8 µM) | relative viability (GSK126 + Decitabine; first compound 2.53 µM) | relative viability (GSK126 + Decitabine; first compound 8 µM) | relative viability (Carboplatin + Crizotinib; first compound 0.08 µM) | relative viability (Carboplatin + Crizotinib; first compound 0.253 µM) | relative viability (Carboplatin + Crizotinib; first compound 0.8 µM) | relative viability (Carboplatin + Crizotinib; first compound 2.53 µM) | relative viability (Carboplatin + Crizotinib; first compound 8 µM) |
| --- | --- | --- | --- | --- | --- | --- | --- | --- | --- | --- | --- | --- | --- | --- | --- | --- | --- | --- | --- | --- |
| EPLC-272H | 0.328 | 0.152 | 0.219 | 0.164 | 0.143 | 0.86 | 1.1 | 0.972 | 1.01 | 0.877 | 0.441 | 0.349 | 0.39 | 0.358 | 0.361 | 0.975 | 1.05 | 0.892 | 0.888 | 0.937 |
| NCI-H647 | 0.193 | 0.157 | 0.127 | 0.0558 | 0.0842 | 1.03 | 1.24 | 0.952 | 1.07 | 0.686 | 0.445 | 0.356 | 0.484 | 0.383 | 0.437 | 1.11 | 1.04 | 1.01 | 1.11 | 0.632 |
| NCI-H1792 | 0.515 | 0.436 | 0.495 | 0.321 | 0.359 | 1.06 | 0.933 | 0.885 | 0.844 | 0.862 | 0.716 | 0.546 | 0.498 | 0.412 | 0.575 | 1.07 | 1.04 | 0.945 | 0.888 | 0.866 |
| NCI-H2009 | 0.924 | 0.553 | 0.292 | 0.18 | 0.139 | 1.12 | 0.938 | 0.945 | 0.918 | 0.671 | 0.372 | 0.334 | 0.45 | 0.403 | 0.381 | 1.06 | 1 | 0.987 | 0.965 | 0.611 |
| NCI-H2405 | 0.608 | 0.469 | 0.518 | 0.286 | 0.241 | 1.03 | 1 | 0.994 | 0.912 | 0.89 | 0.757 | 0.66 | 0.71 | 0.747 | 0.729 | 0.901 | 0.906 | 0.847 | 0.813 | 0.754 |
| NCI-H322M | 1.25 | 1.11 | 0.989 | 0.488 | 0.311 | 1.26 | 1.23 | 1.2 | 1.22 | 1.14 | 0.656 | 0.676 | 0.758 | 0.733 | 0.754 | 1.07 | 0.964 | 0.963 | 0.926 | 0.854 |
| NCI-H2085 | 0.422 | 0.407 | 0.534 | 0.375 | 0.311 | 1.24 | 1.2 | 1.03 | 1 | 0.82 | 0.551 | 0.511 | 0.588 | 0.615 | 0.518 | 1.01 | 0.932 | 0.778 | 0.754 | 0.676 |
| PC-3 [JPC-3] | 0.799 | 0.773 | 0.552 | 0.346 | 0.327 | 0.928 | 0.81 | 0.748 | 0.798 | 0.742 | 0.831 | 0.74 | 0.826 | 0.86 | 0.881 | 1.03 | 1.04 | 0.962 | 0.966 | 0.902 |
| NCI-H1355 | 0.636 | 0.684 | 0.775 | 0.366 | 0.208 | 1.35 | 1.33 | 1.18 | 1.23 | 1.04 | 0.391 | 0.334 | 0.318 | 0.336 | 0.416 | 1.16 | 1.18 | 1.02 | 1.02 | 1.02 |
| NCI-H1650 | 0.225 | 0.217 | 0.243 | 0.224 | 0.203 | 0.221 | 0.195 | 0.193 | 0.198 | 0.178 | 0.437 | 0.541 | 0.522 | 0.402 | 0.495 | 1.2 | 0.968 | 0.907 | 0.824 | 0.533 |
| NCI-H838 | 0.23 | 0.279 | 0.173 | 0.12 | 0.125 | 1.06 | 0.858 | 0.869 | 0.835 | 0.82 | 0.52 | 0.492 | 0.451 | 0.508 | 0.502 | 0.838 | 0.918 | 0.784 | 0.861 | 0.797 |
| NCI-H1755 | 0.441 | 0.443 | 0.238 | 0.221 | 0.231 | 0.995 | 1.02 | 0.992 | 1.01 | 0.887 | 0.696 | 0.68 | 0.684 | 0.662 | 0.714 | 0.868 | 0.935 | 0.853 | 0.848 | 0.743 |
| NCI-H1651 | 0.725 | 0.745 | 0.607 | 0.315 | 0.224 | 0.92 | 0.967 | 0.927 | 0.872 | 0.761 | 0.64 | 0.634 | 0.606 | 0.772 | 0.624 | 0.931 | 0.929 | 0.738 | 0.748 | 0.712 |
| NCI-H650 | 0.86 | 0.543 | 0.367 | 0.17 | 0.162 | 0.966 | 0.852 | 0.868 | 0.764 | 0.388 | 0.33 | 0.293 | 0.311 | 0.299 | 0.322 | 0.789 | 0.697 | 0.569 | 0.506 | 0.567 |
